In patent US20090226952A1, “SCREENING METHOD FOR COMPOUNDS WITH A[…]” (Isis Innovation Limited, priority 2005, published 2009):
“Also recorded” adds a separate entry of the source.

Experiments:
[1] = test system: transient working neuronal assemblies in in vitro hippocampal slices; assay: Optical imaging with voltage sensitive dye Di-4-ANEPPS (ΔF/F) of paired-pulse stimulated hippocampal slices; type: cell-based, rat; settings: for effect on population activity / prolongation of activation of the neuronal assembly after the second pulse / time for which neurons remain activated / return to resting baseline after peak activation following the second stimulating pulse: optical imaging; for effect on population activity / prolongation of activation of the neuronal assembly after the second pulse: vs control ACSF; for time for which neurons remain activated / return to resting baseline after peak activation following the second stimulating pulse: morphine 10-100 μM, gabapentin 100-150 μM, thiopental 80-150 μM, propofol 10-50 μM, control returns within 60 ms; for optical ΔF/F peak 2 value vs control / optical ΔF/F peak 1 value vs control: paired t-test n=6; for time from peak to half peak activity, peak 2 (t3−t4), vs control: ΔF/F data
Method: (§1) In the study, collective synchronised neuronal activity, i.e. working neuronal assemblies^3, were recorded while monitoring in parallel the underlying synaptic electrical activity (FIG. 1a). Accordingly, the use of the voltage sensitive dye, Di-4-ANEPPS, was combined with standard electrophysiological field potential recordings to measure the excitatory post-synaptic potentials (EPSPs). Under control conditions in physiological saline, electrical stimuli in a paired-pulse paradigm^18 were applied to the Schaffer Collaterals of in vitro hippocampal slices.
(§2) Following terminal anaesthesia using halothane, 400 μm transverse hippocampal slices from 2 week Wistar rats were obtained and left to rest for one hour in a high humidity chamber with oxygenated artificial cerebrospinal fluid (ACSF) (in mM: 124 NaCl, 22 NaHCO3, 10 glucose, 5 KCl, 2 CaCl2, 1.25 MgSO4, 1.25 NaH2PO4) before being submersed in dye solution (4% dye stock solution (in mM: 0.2 mM Di-4-ANEPPS (Molecular Probes, Oregon, USA) in 2.7% ethanol, 0.13% Cremaphor EL), 48% fetal bovine serum and 24% ACSF and 24% ACSF cellulose) for 25 minutes followed by a further one hour rest in the humidity chamber with oxygenated ACSF.
(§3) Electrical stimulation (paired pulse 8-10V, 60 ms interval, 0.1 ms duration) was generated by an isolated stimulator (Digitimer Ltd, UK) via a bipolar electrode (FHC, Maine, USA) and positioned just above the CA3 region. In this way, paired pulses were applied along the Shaffer Collaterals so as to elicit a spreading depolarising wave that formed from the point of stimulation and moved along the pathway towards the CA1 region. A halogen lamp provided the excitatory wavelengths for the dye (through a λ=530±10 nm filter) while the emission was captured on a 2 mm×3 mm CCD sensor (MiCAM01, BrainVision, Tokyo, Japan) through an absorption filter (λ=590 nm). Optical recordings were acquired at a rate of 0.7 ms frame^−1 for 682 frames. 16 optical recordings were averaged for each experimental condition to reduce the effects of dye bleaching and increase the signal-to-noise ratio. Analysis included ΔF/F calculations and a 5×5×3 Gaussian matrix filter (BrainVision Analysis software and Igor Pro 5, Wavemetrics, USA). As indicated above, such optical imaging was combined with standard electrophysiological field potential recordings to measure the excitory post synaptic potentials (EPSPs). […] All statistical comparisons were performed using student t-test of paired samples, n=6; 95% confidence interval.

[2] = test system: in vitro hippocampal slices (Schaffer Collaterals, excitatory post-synaptic potentials); assay: Electrophysiological field potential (EPSP) recordings in paired-pulse stimulated hippocampal slices; type: cell-based, rat; settings: for time from peak to half peak activity, peak 2 (t3−t4), vs control: EPSP data; for paired-pulse facilitation in EPSP recordings, treatment vs control / EPSP peak 1 value vs control / EPSP peak 2 value vs control: morphine 10-100 μM, gabapentin 100-150 μM, thiopental 80-150 μM, propofol 10-50 μM; for EPSP peak 1 value vs control / EPSP peak 2 value vs control: paired t-test n=6
Method: as §1, §2, §3

Row | SMILES | effect on population activity / prolongation of activation of the neuronal assembly after the second pulse [1] | time for which neurons remain activated / return to resting baseline after peak activation following the second stimulating pulse [1] | optical ΔF/F peak 2 value vs control [1] | time from peak to half peak activity, peak 2 (t3−t4), vs control [1] | time from peak to half peak activity, peak 2 (t3−t4), vs control [2] | paired-pulse facilitation in EPSP recordings, treatment vs control [2] | EPSP peak 1 value vs control [2] | EPSP peak 2 value vs control [2] | paired-pulse facilitation in ΔF/F recordings, treatment vs control [1] | optical ΔF/F peak 1 value vs control [1]
1 | NCC1(CC(=O)O)CCCCC1 [gabapentin] | not substantially altered; also recorded: no such effect | ≤ 60 ms | significant difference | no significant difference | no significant difference | no significant difference | not significantly changed | not significantly changed | – | –
2 | CC(C)c1cccc(C(C)C)c1O [propofol, 2,6-diisopropylphenol] | prolonged activation | – | significant reduction | very highly significant differences | low statistical difference | did not significantly differ | significantly reduced | significantly reduced | did not significantly change | did not differ significantly
3 | CN1CC[C@]23c4c5ccc(O)c4O[C@H]2[C@@H](O)C=C[C@H]3[C@H]1C5 [morphine] | – | ≤ 60 ms | – | – | – | – | – | – | – | –
4 | CCCC(C)C1(CC)C(=O)NC(=S)NC1=O (stereo not shown) [thiopental, 5-ethyl-5-(1-methylbutyl)-2-thiobarbituricacid] | prolonged activation | up to 500 ms | significant reduction | highly significant | no significant change | abolished | significantly reduced | significantly reduced | abolished | did not differ significantly
